What was measured:
[1] = tested on: Trachea; experiment: Inhibition of Ach-induced contraction in Sprague-Dawley rat trachea assessed as tracheal tension at 10^-4 mol/L (reference value: 0.63 to 0.98 g); assay type: functional
[2] = tested on: Trachea; experiment: Inhibition of Ach-induced contraction in Sprague-Dawley rat trachea assessed as maximal diastolic rate at 10^-8 mol/L (reference value: 14 +/- 1.8%); assay type: functional; design: scale not given: the % may be the effect or the level left
[3] = tested on: Trachea; experiment: Inhibition of KCl-induced contraction in Sprague-Dawley rat trachea assessed as maximal diastolic rate at 10^-9 mol/L (reference value: 5.9 +/- 1.8%); assay type: functional; design: scale not given: the % may be the effect or the level left
[4] = tested on: Trachea; experiment: Inhibition of KCl-induced contraction in Sprague-Dawley rat trachea assessed as maximal diastolic rate at 10^-8 mol/L (reference value: 7 +/- 0.3%); assay type: functional; design: scale not given: the % may be the effect or the level left
[5] = tested on: Trachea; experiment: Inhibition of KCl-induced contraction in Sprague-Dawley rat trachea assessed as maximal diastolic rate at 10^-7 mol/L (reference value: 7 +/- 0.8%); assay type: functional; design: scale not given: the % may be the effect or the level left
[6] = tested on: Trachea; experiment: Inhibition of KCl-induced contraction in Sprague-Dawley rat trachea assessed as tracheal tension at 10^-9 mol/L (reference value: 2.16 to 2.59 g); assay type: functional
[7] = tested on: Trachea; experiment: Inhibition of KCl-induced contraction in Sprague-Dawley rat trachea assessed as maximal diastolic rate at 10^-5 mol/L (reference value: 6 +/- 0.6%); assay type: functional; design: scale not given: the % may be the effect or the level left
[8] = tested on: Trachea; experiment: Inhibition of KCl-induced contraction in Sprague-Dawley rat trachea assessed as maximal diastolic rate at 10^-4 mol/L (reference value: 6.6 +/- 0.3%); assay type: functional; design: scale not given: the % may be the effect or the level left
[9] = tested on: Trachea; experiment: Inhibition of Ach-induced contraction in Sprague-Dawley rat trachea assessed as maximal diastolic rate at 10^-7 mol/L (reference value: 14.2 +/- 2.3%); assay type: functional; design: scale not given: the % may be the effect or the level left
[10] = tested on: Trachea; experiment: Inhibition of Ach-induced contraction in Sprague-Dawley rat trachea assessed as tracheal tension at 10^-8 mol/L (reference value: 0.63 to 0.98 g); assay type: functional
[11] = tested on: Trachea; experiment: Inhibition of Ach-induced contraction in Sprague-Dawley rat trachea assessed as maximal diastolic rate at 10^-6 mol/L (reference value: 15.9 +/- 3%); assay type: functional; design: scale not given: the % may be the effect or the level left
[12] = tested on: Trachea; experiment: Inhibition of Ach-induced contraction in Sprague-Dawley rat trachea assessed as tracheal tension at 10^-9 mol/L (reference value: 0.63 to 0.98g); assay type: functional
[13] = tested on: Trachea; experiment: Inhibition of KCl-induced contraction in Sprague-Dawley rat trachea assessed as tracheal tension at 10^-7 mol/L (reference value: 2.16 to 2.59 g); assay type: functional
[14] = tested on: Trachea; experiment: Inhibition of Ach-induced contraction in Sprague-Dawley rat trachea assessed as maximal diastolic rate at 10^-9 mol/L (reference value: 12.7 +/- 2.8%); assay type: functional; design: scale not given: the % may be the effect or the level left
[15] = tested on: Trachea; experiment: Inhibition of KCl-induced contraction in Sprague-Dawley rat trachea assessed as tracheal tension at 10^-8 mol/L (reference value: 2.16 to 2.59 g); assay type: functional
[16] = tested on: Trachea; experiment: Inhibition of Ach-induced contraction in Sprague-Dawley rat trachea assessed as tracheal tension at 10^-7 mol/L (reference value: 0.63 to 0.98 g); assay type: functional
[17] = tested on: Trachea; experiment: Inhibition of KCl-induced contraction in Sprague-Dawley rat trachea assessed as maximal diastolic rate at 10^-6 mol/L (reference value: 6 +/- 1.2%); assay type: functional; design: scale not given: the % may be the effect or the level left
[18] = tested on: Trachea; experiment: Inhibition of Ach-induced contraction in Sprague-Dawley rat trachea assessed as maximal diastolic rate at 10^-5 mol/L (reference value: 15.9 +/- 2.6%); assay type: functional; design: scale not given: the % may be the effect or the level left
[19] = tested on: Trachea; experiment: Inhibition of KCl-induced contraction in Sprague-Dawley rat trachea assessed as tracheal tension at 10^-6 mol/L (reference value: 2.16 to 2.59 g); assay type: functional
[20] = tested on: Trachea; experiment: Inhibition of KCl-induced contraction in Sprague-Dawley rat trachea assessed as tracheal tension at 10^-4 mol/L (reference value: 2.16 to 2.59 g); assay type: functional
[21] = tested on: Trachea; experiment: Inhibition of Ach-induced contraction in Sprague-Dawley rat trachea assessed as tracheal tension at 10^-5 mol/L (reference value: 0.63 to 0.98 g); assay type: functional
[22] = tested on: Trachea; experiment: Inhibition of Ach-induced contraction in Sprague-Dawley rat trachea assessed as tracheal tension at 10^-6 mol/L (reference value: 0.63 to 0.98 g); assay type: functional
[23] = tested on: Trachea; experiment: Inhibition of KCl-induced contraction in Sprague-Dawley rat trachea assessed as tracheal tension at 10^-5 mol/L (reference value: 2.16 to 2.59 g); assay type: functional
[24] = tested on: Trachea; experiment: Inhibition of Ach-induced contraction in Sprague-Dawley rat trachea assessed as maximal diastolic rate at 10^-4 mol/L (reference value: 15 +/- 4.2%); assay type: functional; design: scale not given: the % may be the effect or the level left
[25] = tested on: Trachea; experiment: Inhibition of Ach-induced contraction in Sprague-Dawley rat trachea at 1 to 100 umol/L; assay type: functional, tissue-based; details: read-out: pA2 (converted)
[26] = tested on: Trachea; experiment: Inhibition of Ach-induced contraction in Sprague-Dawley rat trachea; assay type: functional, tissue-based

Row | SMILES | Activity [1] [g] | Activity [2] [%] | Activity [3] [%] | Activity [4] [%] | Activity [5] [%] | Activity [6] [g] | Activity [7] [%] | Activity [8] [%] | Activity [9] [%] | Activity [10] [g] | Activity [11] [%] | Activity [12] [g] | Activity [13] [g] | Activity [14] [%] | Activity [15] [g] | Activity [16] [g] | Activity [17] [%] | Activity [18] [%] | Activity [19] [g] | Activity [20] [g] | other results
1 | C[C@H]1CC[C@H]2[C@@H](C)[C@H]3CC[C@@H]4[C@@H](C[C@H]5[C@H]4CC(=O)[C@H]4C[C@@H](O)CC[C@@]45C)[C@@H]3CN2C1 | 0.54 | 16.3 | 5.7 | 5.3 | 3.9 | 2.16 | 3.2 | 2.9 | 17.9 | 0.56 | 19.8 | 0.59 | 2.2 | 12.2 | 2.18 | 0.56 | 3.2 | 19.5 | 2.2 | 2.21 | Activity [21]: 0.55 g; Activity [22]: 0.55 g; Activity [23]: 2.2 g; Activity [24]: 20.9%
2 | C[C@H]1CC[C@H]2N(C1)C[C@H]1[C@@H]3C[C@H]4[C@@H](CC(=O)[C@H]5C[C@@H](O[C@@H]6O[C@H](CO)[C@@H](O)[C@H](O)[C@H]6O)CC[C@@]54C)[C@@H]3CC[C@@H]1[C@@]2(C)O | 0.84 | 13.8 | 7.8 | 6.2 | 6.4 | 2.33 | 6.4 | 8.3 | 14.9 | 0.84 | 15 | 0.85 | 2.36 | 12.2 | 2.37 | 0.83 | 7.5 | 15.9 | 2.34 | 2.33 | Kb [25]: 2630 nM; EC50 [26]: 3000 nM; Activity [21]: 0.83 g; Activity [22]: 0.84 g; Activity [23]: 2.37 g; Activity [24]: 15.6%
3 | COC(=O)C1=C(C)NC(C)=C(C(=O)OC)C1c1ccccc1[N+](=O)[O-] [NIFEDIPINE] |  |  |  |  |  |  |  |  |  |  |  |  |  |  |  |  |  |  |  |  | Kb [25]: 6030 nM; EC50 [26]: 6500 nM
4 | Cn1c(=O)c2[nH]cnc2n(C)c1=O [AMINOPHYLLINE] |  |  |  |  |  |  |  |  |  |  |  |  |  |  |  |  |  |  |  |  | Kb [25]: 47.9 nM; EC50 [26]: 50 nM
5 | C[C@H]1CC[C@@H]2N(C1)C[C@H]1[C@@H]3C[C@H]4[C@@H](CC(=O)[C@H]5C[C@@H](O)CC[C@@]54C)[C@@H]3CC[C@H]1[C@]2(C)O [IMPERIALINE] | 0.48 | 28.1 | 5.7 | 6.3 | 6 | 2.44 | 6.8 | 7.2 | 35.3 | 0.55 | 40.4 | 0.58 | 2.44 | 14.5 | 2.43 | 0.52 | 6.4 | 45.7 | 2.43 | 2.41 | Kb [25]: 3.89 nM; EC50 [26]: 4400 nM; Activity [21]: 0.49 g; Activity [22]: 0.5 g; Activity [23]: 2.42 g; Activity [24]: 50.7%
6 | Cc1c([C@H](C)[C@@H]2NC[C@@H](C)C[C@H]2O)ccc2c1C[C@H]1[C@H]2CC(=O)[C@H]2C[C@@H](O)CC[C@@]21C | -0.11 | 16 | 5.7 | 4.8 | 6.1 | 2.23 | 8 | 13.9 | 18.9 | 0.53 | 21.3 | 0.54 | 2.22 | 13.6 | 2.25 | 0.52 | 7.2 | 24.5 | 2.2 | 2.04 | Activity [21]: 0.48 g; Activity [22]: 0.5 g; Activity [23]: 2.18 g; Activity [24]: 115.2%
7 | C[C@H]1CC[C@H]2[C@@](C)(O)[C@@H]3CC[C@@H]4[C@@H](C[C@H]5[C@H]4CC(=O)[C@H]4C[C@@H](O)CC[C@@]45C)[C@@H]3C[N+]2([O-])C1 (stereo partly specified) | 0.55 | 17.2 | 6.4 | 6.9 | 6.7 | 2.3 | 6.1 | 5.7 | 27 | 0.6 | 25.8 | 0.61 | 2.3 | 15.6 | 2.29 | 0.56 | 5.5 | 21.6 | 2.32 | 2.31 | Activity [21]: 0.58 g; Activity [22]: 0.57 g; Activity [23]: 2.31 g; Activity [24]: 31.3%
8 | C[C@H]1CC[C@@H]2N(C1)C[C@H]1[C@@H]3C[C@H]4[C@@H](CC(=O)[C@H]5C[C@@H](O[C@@H]6O[C@H](CO)[C@@H](O)[C@H](O)[C@H]6O)CC[C@@]54C)[C@@H]3CC[C@H]1[C@]2(C)O | -0.13 | 15.2 | 7.5 | 5.2 | 5.2 | 2.4 | 4.5 | 3 | 17.7 | 0.78 | 20.5 | 0.81 | 2.45 | 12.6 | 2.45 | 0.76 | 5.3 | 22.7 | 2.45 | 2.52 | Activity [21]: 0.71 g; Activity [22]: 0.74 g; Activity [23]: 2.47 g; Activity [24]: 129.3%
9 | C[C@@H]1CN[C@H]2[C@@H](C)[C@@]3(CC[C@]4(O)[C@@H]5CC(=O)[C@H]6C[C@@H](O)CC[C@]6(C)[C@H]5C[C@]45O[C@]53C)O[C@@H]2C1 | 0.53 | 18.3 | 6.3 | 5.1 | 5.6 | 2.34 | 3.3 | 2.1 | 23 | 0.55 | 27.1 | 0.56 | 2.36 | 15.2 | 2.37 | 0.53 | 4.5 | 30.2 | 2.39 | 2.45 | Activity [21]: 0.5 g; Activity [22]: 0.52 g; Activity [23]: 2.42 g; Activity [24]: 23.4%

Reference: ChEMBL document CHEMBL3785034, “New isosteroidal alkaloids with tracheal relaxant effect from the bulbs of Fritillaria pallidiflora Schrenk” (Bioorg Med Chem Lett, 2016)
